Test results as given in the NIST ThermoML archive (doi:10.1016/j.fluid.2016.06.024).

Key:
[1] = molar heat capacity at constant pressure; wn = mass fraction of the nth substance listed; conditions: Liquid, Flow calorimetry, w2 = 0.995
[2] = molar heat capacity at constant pressure; conditions: Liquid, Flow calorimetry

COC(F)(F)C(F)(C(F)(F)F)C(F)(F)F [methyl nonafluoroisobutyl ether] + COC(F)(F)C(F)(F)C(F)(F)C(F)(F)F
[1]
Conditions	molar heat capacity at constant pressure [J/K/mol]
253.15 K, 5000 kPa	209.05
253.16 K, 10000 kPa	207.55
253.16 K, 15000 kPa	205.55
253.17 K, 100 kPa	214.05
264.15 K, 15000 kPa	227.11
264.16 K, 5000 kPa	230.61
264.17 K, 100 kPa	232.86
264.18 K, 10000 kPa	228.61
274.59 K, 15000 kPa	249.36
274.63 K, 100 kPa	257.81
274.63 K, 5000 kPa	252.81
274.63 K, 10000 kPa	250.86
284.25 K, 10000 kPa	273.79
284.26 K, 100 kPa	278.04
284.27 K, 5000 kPa	275.79
284.3 K, 15000 kPa	272.29
294.09 K, 5000 kPa	297.5
294.09 K, 10000 kPa	294.82
294.1 K, 100 kPa	300.52
294.13 K, 15000 kPa	294
303.94 K, 10000 kPa	317.35
303.95 K, 100 kPa	321.61
303.96 K, 5000 kPa	319.35
303.96 K, 15000 kPa	315.85
314.92 K, 100 kPa	347.39
314.92 K, 5000 kPa	345.14
314.92 K, 10000 kPa	342.34
314.92 K, 15000 kPa	340.08
323.71 K, 100 kPa	374.09
323.72 K, 5000 kPa	369.47
323.73 K, 10000 kPa	367.47
323.74 K, 15000 kPa	364.84

CCO [ethanol]
molar heat capacity at constant pressure [J/K/mol], [2]
Conditions	100 kPa	5000 kPa	10000 kPa	15000 kPa	20000 kPa
273.17 K	103.42	103.1	102.18	101.77	100.8
293.16 K	111.62	111.02	109.97	108.95	108.21
313.18 K	120.47	119.09	117.7	116.78	115.68
333.19 K	130.65	129.73	128.35	126.83	125.91

COC(F)(F)C(F)(F)C(F)(F)F [heptafluoropropyl methyl ether]
[2]
Conditions	molar heat capacity at constant pressure [J/K/mol]
255.05 K, 100 kPa	233.26
255.06 K, 10000 kPa	230.06
255.06 K, 15000 kPa	229.26
255.08 K, 5000 kPa	231.26
266.01 K, 100 kPa	240.27
266.01 K, 5000 kPa	238.67
266.02 K, 10000 kPa	237.06
266.03 K, 15000 kPa	236.46
275.04 K, 100 kPa	245.47
275.04 K, 15000 kPa	241.27
275.05 K, 5000 kPa	244.27
275.11 K, 10000 kPa	242.47
284.81 K, 100 kPa	251.87
284.81 K, 5000 kPa	250.07
284.86 K, 10000 kPa	248.67
284.94 K, 15000 kPa	247.47
294.05 K, 100 kPa	257.67
294.07 K, 5000 kPa	255.47
294.08 K, 10000 kPa	254.47
294.1 K, 15000 kPa	253.67
